# ChEMBL document CHEMBL1201862, “PubChem BioAssay data set” (2004)
# The source made the active and inactive calls. For most assays here, no stated cut-off is given here; in the data, actives have a measured EC50 and inactives only a lower limit.
# Key:
# [1] = tested on: INS1; assay: beta cell apoptosis inhibitors, cytokine rescue, dose response, luminescence, retest (AID 449756); type: functional, cell-based; conditions: Rattus norvegicus;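 further: cell death triggered by IL-1 beta plus TNF-alpha plus IFN-gamma mixture; protective hits raise ATP signal compared with cytokine alone wells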
# [2] = biological target: T1, Rac GTPase-activating protein 1 (Homo sapiens, UniProt Q9H0H5); assay: MgcRacGAP GTPase-activating activity inhibitors, confirmation, biochemical, ADP Hunter fluorescence, primary and confirmatory (AID 624330); type: functional
# T1 sequence (Q9H0H5 whole entry): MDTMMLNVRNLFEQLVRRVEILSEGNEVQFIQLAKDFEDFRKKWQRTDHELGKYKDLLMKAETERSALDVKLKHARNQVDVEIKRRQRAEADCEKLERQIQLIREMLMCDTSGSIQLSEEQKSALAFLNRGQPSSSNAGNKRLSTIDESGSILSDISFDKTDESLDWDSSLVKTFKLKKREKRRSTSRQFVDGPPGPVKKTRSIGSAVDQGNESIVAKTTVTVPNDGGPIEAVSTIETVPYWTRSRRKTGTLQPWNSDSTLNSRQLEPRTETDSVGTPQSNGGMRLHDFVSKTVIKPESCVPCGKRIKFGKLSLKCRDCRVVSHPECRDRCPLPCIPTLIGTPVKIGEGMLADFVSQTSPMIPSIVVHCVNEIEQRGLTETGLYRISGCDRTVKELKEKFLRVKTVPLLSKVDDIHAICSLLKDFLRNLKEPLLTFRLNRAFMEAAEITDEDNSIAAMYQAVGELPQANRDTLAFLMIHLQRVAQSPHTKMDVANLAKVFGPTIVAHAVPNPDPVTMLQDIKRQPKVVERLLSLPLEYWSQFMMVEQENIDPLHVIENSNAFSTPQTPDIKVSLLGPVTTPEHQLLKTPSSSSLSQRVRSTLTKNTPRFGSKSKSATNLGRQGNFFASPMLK
# [3] = biological target: T2, Streptokinase A (Streptococcus pyogenes serotype M1, UniProt P10520); assay: S. pyogenes streptokinase expression inhibitors, potency, dose response, plasminogen activation absorbance, OD405 (AID 1914); type: functional, Streptococcus pyogenes M1 GAS;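 further: secreted streptokinase activity via plasminogen activation per viability signal from cell pellet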
# T2 sequence (P10520 whole entry): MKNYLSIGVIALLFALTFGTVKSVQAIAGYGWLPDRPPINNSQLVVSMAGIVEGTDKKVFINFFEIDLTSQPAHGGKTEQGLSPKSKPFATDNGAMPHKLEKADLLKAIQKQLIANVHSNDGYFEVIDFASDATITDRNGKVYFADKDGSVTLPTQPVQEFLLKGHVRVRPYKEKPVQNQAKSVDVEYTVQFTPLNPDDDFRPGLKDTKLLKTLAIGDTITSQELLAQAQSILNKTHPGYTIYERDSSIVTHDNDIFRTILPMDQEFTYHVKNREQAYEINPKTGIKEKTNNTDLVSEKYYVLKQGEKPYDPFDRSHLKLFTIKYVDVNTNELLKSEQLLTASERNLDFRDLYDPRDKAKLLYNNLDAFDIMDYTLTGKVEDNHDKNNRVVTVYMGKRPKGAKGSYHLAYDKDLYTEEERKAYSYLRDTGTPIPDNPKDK
# [4] = tested on: Streptococcus; assay: Group A Streptococcus viability loss, dose response, counter-screen for streptokinase expression inhibitor project, luminescence, BacTiterGlo (AID 1915); type: functional, organism-based;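 further: potency for reduction of bacterial viability or growth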
# [5] = Luminescence Cell-Based Dose Retest to Confirm Inhibitors of Cancer Stem Cells. [Related pubchem assays (depositor defined):AID2717, AID2721]; type: functional; conditions: Homo sapiens
# [6] = tested on: Streptococcus sp. 'group A'; assay: growth inhibition of control SK(-) GAS strain, dose response, counter-screen for streptokinase expression inhibitor project, luminescence, kanamycin, BacTiterGlo, confirmation (AID 1900); type: functional, organism-based
# [7] = inhibitors of intracellular T. cruzi replication, confirmation, NIH3T3 host cells, beta-gal luminescence (AID 2044); type: functional, cell-based;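 further: intracellular parasites grown in NIH/3T3 mouse fibroblasts as host cells; luminescent beta-galactosidase reporter signal from transgenic T. cruzi replicating inside host cells; inhibitors lower the luminescence signal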
# [8] = cytotoxicity toward NIH3T3 fibroblasts, dose response, counter-screen, cell-based, ATP luminescence, mouse fibroblasts (AID 2010); type: functional;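 further: cells exposed to compound for about 90 hours before reading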
# [9] = biological target: Paired box protein Pax-8 (Homo sapiens, UniProt Q06710); assay: inhibitors of PAX8-driven TPO luciferase reporter, dose response, RMG-I cells, cherry-pick (AID 687027); type: functional, cell-based;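 further: luciferase reporter driven by Pax8 target thyroperoxidase promoter measured by SteadyGlo luminescence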
# Chain of Paired box protein Pax-8 (Q06710 whole entry): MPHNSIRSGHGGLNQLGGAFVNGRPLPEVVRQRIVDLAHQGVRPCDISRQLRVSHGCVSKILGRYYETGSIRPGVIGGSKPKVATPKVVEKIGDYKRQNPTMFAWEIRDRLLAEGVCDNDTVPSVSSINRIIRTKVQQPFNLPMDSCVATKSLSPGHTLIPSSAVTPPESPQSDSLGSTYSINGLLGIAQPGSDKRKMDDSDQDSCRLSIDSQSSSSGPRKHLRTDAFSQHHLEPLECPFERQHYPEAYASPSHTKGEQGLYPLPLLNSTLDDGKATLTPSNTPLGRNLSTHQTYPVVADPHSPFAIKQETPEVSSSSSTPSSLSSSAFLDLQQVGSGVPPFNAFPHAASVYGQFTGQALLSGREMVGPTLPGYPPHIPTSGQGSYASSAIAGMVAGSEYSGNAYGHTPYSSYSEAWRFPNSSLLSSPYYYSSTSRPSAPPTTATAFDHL
smiles,measurement,setting,value
O=C(COC(=O)Cn1cnc2ccccc2c1=O)Nc1ccc2c(c1)OCO2,AC50,[1],> 260 µM (inactive)
CCOc1cccc2cc(C(=O)Oc3ccc(OC)cc3)c(=O)oc12,IC50,[2],52.5 µM (active)
CCCSc1nsc(NC(=O)Nc2ccc(F)cc2F)n1,EC50,[3],54.8 µM (inconclusive)
same,EC50,[4],34.2 µM (active)
same,AC50,[1],6.57 µM (active)
same,AC50,[5],2.95 µM (active)
same,EC50,[6],17.5 µM (active)
Nc1c(C(=O)c2ccccc2)sc(Nc2ccccc2)c1S(=O)(=O)c1ccccc1,EC50,[7],1.47 µM (active)
same,EC50,[8],> 60 µM (not active)
c1ccc(-c2nc(N3CCN(c4ccccc4)CC3)nc(-n3ccnc3)n2)cc1,EC50,[7],3.53 µM (active)
same,EC50,[8],> 60 µM (not active)
O=C(NC(=S)Nc1cccc(Cl)c1N1CCCCC1)c1ccc2c(c1)OCCO2,EC50,[3],48 µM (active)
same,EC50,[4],> 150 µM (not active)
same,AC50,[5],0.707 µM (active)
same,EC50,[6],80.4 µM (active)
CCOc1cc(/C=C2\SC(N)=NC2=O)ccc1O,IC50,[2],47 µM (active)
CC(C)(C)c1ccc(NC(=O)Cn2cnc3cc([N+](=O)[O-])ccc3c2=O)cc1,EC50,[7],1 µM (active)
same,EC50,[8],22.1 µM (active)
Cc1cccc(OCC(=O)Nc2ccccc2N2CCCCC2)c1C,EC50,[3],5.39 µM (active)
same,EC50,[4],13.4 µM (active)
same,EC50,[6],9.25 µM (active)
CC12CCC(C(=O)NNC(=O)c3ccccc3)(OC1=O)C2(C)C (configuration not stated),EC50,[3],> 150 µM (not active)
same,EC50,[4],> 150 µM (not active)
same,EC50,[6],> 150 µM (not active)
COc1ccccc1OCC#CCN1CCCC(C)C1 (configuration not stated),IC50,[2],182 µM (active)
Cc1ccc(-n2cc(CN3CCC(CO)(Cc4cccc(C(F)(F)F)c4)CC3)cn2)cc1,EC50,[7],0.896 µM (active)
same,EC50,[8],> 60 µM (not active)
Cc1cc(C)cc(NC(=O)C(NCCN2CCOCC2)c2ccccc2)c1 (configuration not stated),IC50,[2],48.4 µM (active)
O=S(=O)(Nc1ccc(O)c(Sc2nc3ccccc3s2)c1)c1cccc2ccccc12,EC50,[3],> 150 µM (not active)
same,EC50,[4],7.08 µM (active)
same,AC50,[5],6.45 µM (active)
same,EC50,[6],4.05 µM (active)
CC(C)Cc1nc2oc3c(Cl)ncnc3c2c2c1CCCC2,AC50,[5],3.3 µM (active)
Cc1ccc(-c2nnn(CC(=O)N3c4ccccc4CCc4ccccc43)n2)cc1,EC50,[7],3.26 µM (active)
same,EC50,[8],> 60 µM (not active)
CCOc1ccc(CN2CCN(Cc3cccc4c3OCO4)CC2CCO)cc1 (configuration not stated),EC50,[7],0.208 µM (active)
same,EC50,[8],> 60 µM (not active)
CS(=O)(=O)c1ccc2nc(NC(=O)c3ccc(NS(=O)(=O)c4ccc(F)c(F)c4)cc3)sc2c1,EC50,[4],5.61 µM (active)
same,EC50,[6],0.318 µM (active)
Cc1ccc(C)c(S(=O)(=O)N2CCN(CC(=O)NC(=O)NCc3ccccc3)CC2)c1,EC50,[7],0.72 µM (active)
same,EC50,[8],> 60 µM (not active)
Cc1ccc(C(c2nnnn2Cc2ccccc2)N2CC=C(c3ccc(F)cc3)CC2)cc1 (configuration not stated),EC50,[7],1.95 µM (active)
same,EC50,[8],20.8 µM (active)
Cc1ccc(NC(S)=NN=C(S)Nc2cccc(C(F)(F)F)c2)cc1,EC50,[3],> 150 µM (not active)
same,EC50,[4],110 µM (active)
same,EC50,[6],5.24 µM (active)
O=C(COC(=O)c1ccccc1Br)Nc1nnc(-c2ccccc2)o1,EC50,[3],> 150 µM (not active)
same,EC50,[4],19.2 µM (active)
same,EC50,[6],0.834 µM (active)
Cc1ccc(CN2CCC(Oc3cccc(C(=O)N(C)CCN(C)C)c3)CC2)cc1C,EC50,[7],< 0.1 µM (active)
same,EC50,[8],26 µM (active)
COc1ccc(/C=C/C(=O)NC(=S)Nc2ccccc2C(=O)NC2CCCCC2)cc1,AC50,[1],13.9 µM (active)
Cc1cnccc1CN(C)Cc1cn(C)nc1-c1ccc(Oc2ccccc2)cc1,EC50,[7],1.76 µM (active)
same,EC50,[8],> 30 µM (not active)
Cc1cccc(C)c1OCCCCN1CCNCC1,IC50,[2],122 µM (active)
C=CCc1cc(Cl)ccc1OCCn1ccnc1,IC50,[2],139 µM (active)
Cc1c(C(=O)NN=C(S)NCc2ccc(Cl)cc2)oc2ccccc12,EC50,[4],> 150 µM (not active)
same,EC50,[6],7.12 µM (active)
Cc1c(C(=O)NNC(=S)NCc2ccc(Cl)cc2)oc2ccccc12,EC50,[3],22.5 µM (active)
COc1cc2c(cc1OC)C1(CCCC1)C(N)=C2C#N,IC50,[2],38 µM (active)
CCOC(=O)c1c(-c2cccs2)csc1NC(=O)c1ccncc1,EC50,[7],2.14 µM (active)
same,EC50,[8],> 30 µM (not active)
Nc1nc(Nc2cccc(Cl)c2)nc(NCc2ccco2)c1[N+](=O)[O-],EC50,[3],> 150 µM (not active)
same,EC50,[4],16.4 µM (active)
same,EC50,[6],7.28 µM (active)
Cc1ccc2nc(-c3ccc(NC(=O)CNC4CC4)cc3)sc2c1,EC50,[3],> 150 µM (not active)
same,EC50,[4],> 150 µM (not active)
same,EC50,[6],14.4 µM (active)
O=C1CSC(c2cccnc2)N1CC1CC1 (configuration not stated),AC50,[1],> 260 µM (inactive)
CC(=O)c1c(Nc2ccc3c(c2)OCCO3)oc(C)cc1=O,IC50,[2],54 µM (active)
COc1ccc(S(=O)(=O)N[C@@H](C)C(=O)OCC(=O)Nc2cc3oc4ccccc4c3cc2OC)cc1,EC50,[3],> 150 µM (not active)
same,EC50,[4],16.4 µM (active)
same,EC50,[6],1.39 µM (active)
CCOC(=O)c1c(NC(=O)c2cccs2)sc2c1CCN(C(=O)OCC)C2,EC50,[6],12 µM (active)
COc1ccc(OC)c(C2C=C(C34CC5CC(CC(C5)C3)C4)N=C(S)N2)c1 (configuration not stated),EC50,[3],14.7 µM (active)
same,EC50,[4],> 150 µM (not active)
same,EC50,[7],1.15 µM (active)
same,EC50,[8],> 30 µM (not active)
same,EC50,[6],11.2 µM (active)
COC(=O)c1ccc2[nH]c3cccc(/C(=C/c4ccccc4)c4ccccc4)c3c2c1,EC50,[3],1.43 µM (active)
same,EC50,[4],3.93 µM (active)
same,AC50,[1],11.2 µM (active)
same,EC50,[6],0.602 µM (active)
COc1ccc(N2CCN(C(C)C(=O)N3CCCC3)CC2)cc1 (configuration not stated),IC50,[2],72.4 µM (active)
NC(=O)c1cc([N+](=O)[O-])ccc1NCc1ccc(O)cc1,AC50,[5],2.92 µM (active)
C/C(=N\Nc1nc2ccccc2[nH]1)c1ccc(Cl)s1,IC50,[2],42 µM (active)
O=C(NN=Cc1ccc(O)cc1)c1ccccc1NS(=O)(=O)c1cccs1,IC50,[2],74.4 µM (active)
Cc1ccn2c(NCc3ccccc3)c(-c3cccc(SC4CCCCC4)c3)nc2c1,AC50,[5],4.44 µM (active)
C[C@@H]1CCCCO[C@H](CN(C)C(=O)NC2CCCCC2)[C@@H](C)CN([C@@H](C)CO)C(=O)c2cc(NC(=O)Nc3ccc(C(F)(F)F)cc3)ccc2O1,AC50,[9],4.98 µM (active)
C[C@@H]1CCCCO[C@@H](CN(C)Cc2ccc(Cl)c(Cl)c2)[C@H](C)CN([C@H](C)CO)C(=O)c2cc(NS(=O)(=O)c3ccccc3)ccc2O1,AC50,[9],7.95 µM (active)
COc1ccc(S(=O)(=O)N2CCCCN3[C@H](C2)[C@H](c2ccc(C#CC(C)C)cc2)[C@@H]3CO)cc1,AC50,[9],9.44 µM (active)
C[C@@H]1CN([C@@H](C)CO)C(=O)c2cc(N(C)C)ccc2O[C@@H]1CN(C)Cc1ccc(Oc2ccccc2)cc1,AC50,[9],19.1 µM (active)
C[C@@H]1CCCCO[C@H](CN(C)Cc2ccc(C(F)(F)F)cc2)[C@H](C)CN([C@H](C)CO)C(=O)c2cc(NS(=O)(=O)c3cccs3)ccc2O1,AC50,[9],11.5 µM (active)
C=CCc1cc(/C=N/c2ccc(N3CCOCC3)cc2)cc(OCC)c1O,IC50,[2],13.1 µM (active)
C/C(=N\Nc1cc(C(F)(F)F)ccc1Cl)c1ccccc1O,AC50,[5],83.1 µM (active)
COc1cccc(CC2(CO)CCCN(Cc3sc(N4CCCC4)nc3Cl)C2)c1 (configuration not stated),EC50,[7],1.74 µM (active)
same,EC50,[8],> 30 µM (not active)
